From the NIST ThermoML archive (doi:10.1016/j.jct.2017.06.014)
± gives the expanded uncertainty stated by the source.

Details: Liquid, Ebulliometric method (Recirculating still)

vapor or sublimation pressure (370.35 K) [kPa]	vapor or sublimation pressure (373.15 K) [kPa]	SMILES
101.3 ± 1.1	–	CCCO [propan-1-ol]
–	101.3 ± 1.1	O [water]
